Source: US20250099478A1, “PLASMA KALLIKREIN INHIBITORS” (Merck Sharp & Dohme LLC, priority 2022, published 2025)

The molecules below were run against T1, Human plasma kallikrein (Homo sapiens, UniProt P03952) (assay: Plasma Kallikrein Assay). Conditions: purified Human plasma kallikrein 0.5 nM, substrate Acetyl-K-P-R-AFC; read-out: PKal IC50.
T1 construct: yields a heavy chain (371 amino acids) and a light chain (248 amino acids); purchased Enzyme Research Laboratories
Assay type: biochemical
Procedure: The effectiveness of a compound of the present invention as an inhibitor of plasma kallikrein can be determined using a relevant purified serine protease, and an appropriate synthetic substrate. The rate of hydrolysis of the chromogenic or fluorogenic substrate by the relevant serine protease was measured both in the absence and presence of compounds of the present invention. Assays were conducted at rt or at 37° C. […] A decrease in the rate of fluorescence change in the presence of inhibitor is indicative of enzyme inhibition. Such methods are known to one skilled in the art. The results of this assay are expressed as the half-maximal inhibitory concentrations (IC50), or the inhibitory constant, Ki.
Plasma kallikrein determinations were made in 50 mM HEPES buffer at pH 7.4 containing 150 mM NaCl, 5 mM CaCl2), and 0.1% PEG 8000 (polyethylene glycol; Fisher Scientific). Determinations were made using purified Human plasma kallikrein at a final concentration of 0.5 nM (Enzyme Research Laboratories) and the synthetic substrate, Acetyl-K-P-R-AFC (Sigma #C6608) at a concentration of […].
Times required to achieve equilibration between enzyme and inhibitor were determined in control experiments. […] IC50 was determined by inflection point from a four parameter logistic curve fit. Ki was calculated using the Cheng Prusoff equation, Ki=IC50/(1+([S]/Km)).

T1 sequence (P03952 391-638 limits assumed): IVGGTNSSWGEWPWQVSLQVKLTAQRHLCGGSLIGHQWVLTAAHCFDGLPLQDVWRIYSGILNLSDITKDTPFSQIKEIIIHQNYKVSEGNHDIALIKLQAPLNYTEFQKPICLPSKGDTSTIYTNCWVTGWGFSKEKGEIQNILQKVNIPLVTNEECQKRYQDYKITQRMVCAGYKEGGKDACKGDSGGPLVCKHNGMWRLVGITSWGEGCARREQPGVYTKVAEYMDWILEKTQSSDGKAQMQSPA
T1 sequence (P03952 20-390 partner limits assumed): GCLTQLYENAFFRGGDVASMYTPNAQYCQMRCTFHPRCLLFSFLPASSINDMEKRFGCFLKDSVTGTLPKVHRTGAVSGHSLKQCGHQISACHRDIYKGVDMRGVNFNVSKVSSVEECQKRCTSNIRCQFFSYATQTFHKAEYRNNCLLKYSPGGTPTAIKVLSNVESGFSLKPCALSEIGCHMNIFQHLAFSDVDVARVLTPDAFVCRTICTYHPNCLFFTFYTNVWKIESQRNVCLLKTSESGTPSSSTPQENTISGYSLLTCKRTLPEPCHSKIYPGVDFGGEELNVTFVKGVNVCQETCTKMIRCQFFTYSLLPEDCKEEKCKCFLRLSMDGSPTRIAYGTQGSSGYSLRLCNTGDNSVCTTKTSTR

| Structure (SMILES) | IC50 [nM] |
| --- | --- |
| O=C1Nc2ccc(Cl)c(F)c2[C@@]2(CCCN(C(=O)c3cnn(Cc4ccc(-c5c[nH]c(=O)o5)cc4)c3)C2)O1 [Example 53, (R)-6-Chloro-5-fluoro-1′-(1-(4-(2-oxo-2,3-dihydrooxazol-5-yl)benzyl)-1H-pyrazole-4-carbonyl)spiro[benzo[d][1,3]oxazine-4,3′-piperidin]-2(1H)-one] | 18.5 |
| O=C1Nc2ccc(Cl)c(F)c2[C@@]2(CCCN(C(=O)c3cnn(Cc4ccc(-n5cc[nH]c5=O)cc4)c3)C2)O1 [Example 50, (R)-6-Chloro-5-fluoro-1′-(1-(4-(2-oxo-2,3-dihydro-1H-imidazol-1-yl)benzyl)-1H-pyrazole-4-carbonyl)spiro[benzo[d][1,3]oxazine-4,3′-piperidin]-2(1H)-one] | 13.7 |
| O=C1Nc2ccc(Cl)c(F)c2[C@@]2(CCCN(C(=O)c3cnn(Cc4ccc(F)c(N5CCC5)c4)c3)C2)O1 [Example 8, (R)-1′-(1-(3-(Azetidin-1-yl)-4-fluorobenzyl)-1H-pyrazole-4-carbonyl)-6-chloro-5-fluorospiro[benzo[d][1,3]oxazine-4,3′-piperidin]-2(1H)-one] | 34.1 |
| O=C1Nc2ccc(Cl)c(F)c2[C@@]2(CCCN(C(=O)c3cnn(Cc4ccc5c(c4)COC5)c3)C2)O1 [Example 60, (R)-6-chloro-1′-(1-((1,3-dihydroisobenzofuran-5-yl)methyl)-1H-pyrazole-4-carbonyl)-5-fluorospiro[benzo[d][1,3]oxazine-4,3′-piperidin]-2(1H)-one] | 14.7 |
| NS(=O)(=O)c1cccc(Cn2cc(C(=O)N3CCC[C@@]4(C3)OC(=O)Nc3ccc(Cl)c(F)c34)cn2)c1 [Example 62, (R)-3-((4-(6-chloro-5-fluoro-2-oxo-1,2-dihydrospiro[benzo[d][1,3]oxazine-4,3′-piperidine]-1′-carbonyl)-1H-pyrazol-1-yl)methyl)benzenesulfonamide] | 49.5 |
| O=C1Nc2ccc(Cl)c(F)c2[C@@]2(CCCN(C(=O)c3cnn(Cc4cccc(C5CC5)c4)c3)C2)O1 [Example 48, (R)-6-Chloro-1′-(1-(3-cyclopropylbenzyl)-1H-pyrazole-4-carbonyl)-5-fluorospiro[benzo[d][1,3]oxazine-4,3′-piperidin]-2(1H)-one] | 32.6 |
| O=C1Nc2ccc(Cl)c(F)c2[C@@]2(CCCN(C(=O)c3cnn(Cc4ccc5ccsc5c4)c3)C2)O1 [Example 55, (R)-1′-(1-(Benzo[b]thiophen-6-ylmethyl)-1H-pyrazole-4-carbonyl)-6-chloro-5-fluorospiro[benzo[d][1,3]oxazine-4,3′-piperidin]-2(1H)-one] | 17.1 |
| O=C1Nc2ccc(Cl)c(F)c2[C@@]2(CCCN(C(=O)c3nnc(Cc4ccc5c(c4)CCO5)[nH]3)C2)O1 [Example 117, (R)-6-Chloro-1′-(5-((2,3-dihydrobenzofuran-5-yl)methyl)-4H-1,2,4-triazole-3-carbonyl)-5-fluorospiro[benzo[d][1,3]oxazine-4,3′-piperidin]-2(1H)-one] | 34.8 |
| O=C1Nc2ccc(Cl)c(F)c2[C@@]2(CCCN(C(=O)c3cnn(Cc4cncc(Cl)c4)c3)C2)O1 [Example 12, (R)-6-Chloro-1′-(1-((5-chloropyridin-3-yl)methyl)-1H-pyrazole-4-carbonyl)-5-fluorospiro[benzo[d][1,3]oxazine-4,3′-piperidin]-2(1H)-one] | 26.4 |
| O=C1Nc2ccc(Cl)c(F)c2[C@]2(CCN(C(=O)c3cnn(Cc4ccc(Cn5ccccc5=O)cn4)c3)C2)O1 [Example 133, (S)-6-Chloro-5-fluoro-1′-(1-((5-((2-oxopyridin-1(2H)-yl)methyl)pyridin-2-yl)methyl)-1H-pyrazole-4-carbonyl)spiro[benzo[d][1,3]oxazine-4,3′-pyrrolidin]-2(1H)-one] | 15.1 |
| O=C1Nc2ccc(Cl)c(F)c2[C@@]2(CCCN(C(=O)c3cnn(Cc4noc5ccccc45)c3)C2)O1 [Example 17, (R)-1′-(1-(Benzo[d]isoxazol-3-ylmethyl)-1H-pyrazole-4-carbonyl)-6-chloro-5-fluorospiro[benzo[d][1,3]oxazine-4,3′-piepridin]-2(1H)-one] | 37.8 |
| O=C1Nc2ccc(Cl)c(F)c2[C@@]2(CCCN(C(=O)c3cnn(Cc4ccc5c(c4)CNC5=O)c3)C2)O1 [Example 61, (R)-6-chloro-5-fluoro-1′-(1-((1-oxoisoindolin-5-yl)methyl)-1H-pyrazole-4-carbonyl)spiro[benzo[d][1,3]oxazine-4,3′-piperidin]-2(1H)-one] | 36.5 |
| CC[C@@H](c1ccc(F)cc1)c1nnc(C(=O)N2CCC[C@@]3(C2)OC(=O)Nc2ccc(Cl)c(F)c23)[nH]1 (single isomer, unassigned) [Example 84] | 4.5 |
| Cc1nc(Cn2cc(C(=O)N3CCC[C@@]4(C3)OC(=O)Nc3ccc(Cl)c(F)c34)cn2)sc1C [Example 18, (R)-6-Chloro-1′-(1-((4,5-dimethylthiazol-2-yl)methyl)-1H-pyrazole-4-carbonyl)-5-fluorospiro[benzo[d][1,3]oxazine-4,3′-piperidin]-2(1H)-one] | 50.4 |
| O=C1Nc2ccc(Cl)c(F)c2[C@@]2(CCCN(C(=O)C3(F)CCN(Cc4ccccc4)C3)C2)O1 (single isomer, unassigned) [Example 131, (R)-1′-((S or R)-1-Benzyl-3-fluoropyrrolidine-3-carbonyl)-6-chloro-5-fluorospiro[benzo[d][1,3]oxazine-4,3′-piperidin]-2(1H)-one] | 9.4 |
| O=C1Nc2ccc(Cl)c(F)c2[C@@]2(CCCN(C(=O)c3nnc(Cc4cccc(OC(F)F)c4)[nH]3)C2)O1 [Example 90, (R)-6-Chloro-1′-(5-(3-(difluoromethoxy)benzyl)-4H-1,2,4-triazole-3-carbonyl)-5-fluorospiro[benzo[d][1,3]oxazine-4,3′-piperidin]-2(1H)-one] | 33.4 |
| O=C1Nc2ccc(Cl)c(F)c2[C@@]2(CCCN(C(=O)c3cnn(Cc4ccc5c(c4)CC(CO)O5)c3)C2)O1 (stereo partly drawn) [Example 58, (4R)-6-Chloro-5-fluoro-1′-(1-((2-(hydroxymethyl)-2,3-dihydrobenzofuran-5-yl)methyl)-1H-pyrazole-4-carbonyl)spiro[benzo[d][1,3]oxazine-4,3′-piperidin]-2(1H)-one] | 10.7 |
| O=C1Nc2ccc(Cl)c(F)c2[C@@]2(CCCN(C(=O)c3nnc(Cc4ccc(F)c(Cl)c4)[nH]3)C2)O1 [Example 87, (R)-6-Chloro-1′-(5-(3-chloro-4-fluorobenzyl)-4H-1,2,4-triazole-3-carbonyl)-5-fluorospiro[benzo[d][1,3]oxazine-4,3′-piperidin]-2(1H)-one] | 49.7 |
| O=C1Nc2ccc(Cl)c(F)c2[C@@]2(CCCN(C(=O)c3cnn(Cc4ccc5c(c4)CNS5(=O)=O)c3)C2)O1 [Example 64, (R)-6-chloro-1′-(1-((1,1-dioxido-2,3-dihydrobenzo[d]isothiazol-5-yl)methyl)-1H-pyrazole-4-carbonyl)-5-fluorospiro[benzo[d][1,3]oxazine-4,3′-piperidin]-2(1H)-one] | 24.2 |
| O=C1Nc2ccc(Cl)c(F)c2[C@@]2(CCCN(C(=O)c3nnc(Cc4cc(Cl)c5nc[nH]c5c4)[nH]3)C2)O1 [Example 122, (R)-6-Chloro-1′-(5-((4-chloro-1H-benzo[d]imidazol-6-yl)methyl)-4H-1,2,4-triazole-3-carbonyl)-5-fluorospiro[benzo[d][1,3]oxazine-4,3′-piperidin]-2(1H)-one] | 17.5 |
| O=C1Nc2ccc(Cl)c(F)c2[C@]2(CCN(C(=O)C3CCN(Cc4ccc(Cn5ccccc5=O)cc4)C3)C2)O1 (single isomer, unassigned) [Example 137] | 31 |
